Measured values published in publication PMC5218480 (PLoS ONE, 2017).

System: MV-4-11 cells
Assay: Gene expression microarray analysis (Affymetrix PrimeView) and GSEA
Format: cell-based, human
Design: RFU PODN (11730768_x_at) / Fold change /veh PODN (11730768_x_at) / RFU LINC00158 (11744669_a_at) / Fold change /veh LINC00158 (11744669_a_at) / RFU DUSP10 (11751237_a_at) / Fold change /veh DUSP10 (11751237_a_at) / RFU ID3 (11757404_x_at) / Fold change /veh ID3 (11757404_x_at) / RFU PLEKHG5 (11737974_s_at) / Fold change /veh PLEKHG5 (11737974_s_at) / RFU LRRC4B (11730491_at) / Fold change /veh LRRC4B (11730491_at) / RFU GIMAP4 (11747438_a_at) / Fold change /veh GIMAP4 (11747438_a_at) / RFU KRT8 (11758183_x_at) / Fold change /veh KRT8 (11758183_x_at) / RFU CNN1 (11734310_a_at) / Fold change /veh CNN1 (11734310_a_at) / RFU VPS37D (11726825_at) / Fold change /veh VPS37D (11726825_at) / RFU C10orf10 (11716522_x_at) / Fold change /veh C10orf10 (11716522_x_at) / RFU KIR2DL2 /// KIR2DL4 /// KIR2DL5A /// KIR2DL5B /// KIR2DS1 /// KIR2DS2 /// KIR2DS3 /// KIR2DS4 /// KIR3DL3 /// KIR3DL3 /// KIR3DS1 (11738374_at) / Fold change /veh KIR2DL2 /// KIR2DL4 /// KIR2DL5A /// KIR2DL5B /// KIR2DS1 /// KIR2DS2 /// KIR2DS3 /// KIR2DS4 /// KIR3DL3 /// KIR3DL3 /// KIR3DS1 (11738374_at) / RFU C1QL1 (11718748_at) / Fold change /veh C1QL1 (11718748_at) / RFU TMPRSS4 (11747572_a_at) / Fold change /veh TMPRSS4 (11747572_a_at) / RFU HAMP (11756126_x_at) / Fold change /veh HAMP (11756126_x_at) / RFU RNFT2 (11725882_a_at) / Fold change /veh RNFT2 (11725882_a_at) / RFU NR4A2 (11747474_a_at) / Fold change /veh NR4A2 (11747474_a_at) / RFU ABCC12 (11746883_a_at) / Fold change /veh ABCC12 (11746883_a_at) / RFU TMEM136 (11760407_x_at) / Fold change /veh TMEM136 (11760407_x_at) / RFU CLDN22 /// WWC2 (11732394_at) / Fold change /veh CLDN22 /// WWC2 (11732394_at) / RFU HLA-DPB1 (11760878_x_at) / Fold change /veh HLA-DPB1 (11760878_x_at) / RFU SPINT1 (11716480_a_at) / Fold change /veh SPINT1 (11716480_a_at) / RFU GAP43 (11754022_s_at) / Fold change /veh GAP43 (11754022_s_at) / RFU A4GNT (11735810_at) / Fold change /veh A4GNT (11735810_at) / RFU PRB3 (11715151_x_at) / Fold change /veh PRB3 (11715151_x_at) / RFU TUBB4B (11761932_at) / Fold change /veh TUBB4B (11761932_at) / RFU CAPN14 (11732068_a_at) / Fold change /veh CAPN14 (11732068_a_at) / RFU TMCC2 (11721928_a_at) / Fold change /veh TMCC2 (11721928_a_at) / RFU IRGQ (11745062_a_at) / Fold change /veh IRGQ (11745062_a_at) / RFU FAM174B (11720279_a_at) / Fold change /veh FAM174B (11720279_a_at) / RFU TMPRSS4 (11748680_a_at) / Fold change /veh TMPRSS4 (11748680_a_at) / RFU FAM212B (11763350_a_at) / Fold change /veh FAM212B (11763350_a_at) / RFU PLEKHG5 (11743358_a_at) / Fold change /veh PLEKHG5 (11743358_a_at) / RFU ZSCAN30 (11745921_a_at) / Fold change /veh ZSCAN30 (11745921_a_at) / RFU CMKLR1 (11741424_a_at) / Fold change /veh CMKLR1 (11741424_a_at) / RFU LOC101060620 /// MAPK8IP1 (11723275_at) / Fold change /veh LOC101060620 /// MAPK8IP1 (11723275_at) / RFU SPTSSB (11747773_x_at) / Fold change /veh SPTSSB (11747773_x_at) / RFU PRSS12 (11739890_at) / Fold change /veh PRSS12 (11739890_at) / RFU BIN1 (11741810_x_at) / Fold change /veh BIN1 (11741810_x_at) / RFU WNT11 (11732464_a_at) / Fold change /veh WNT11 (11732464_a_at) / RFU C10orf10 (11716521_a_at) / Fold change /veh C10orf10 (11716521_a_at) / RFU C5orf56 (11738089_at) / Fold change /veh C5orf56 (11738089_at) / RFU CYB561 (11721691_x_at) / Fold change /veh CYB561 (11721691_x_at) / RFU ANKRD19P (11752326_a_at) / Fold change /veh ANKRD19P (11752326_a_at) / RFU OR2T12 /// OR2T33 /// OR2T8 (11738714_s_at) / Fold change /veh OR2T12 /// OR2T33 /// OR2T8 (11738714_s_at) / RFU VCAN (11748164_a_at) / Fold change /veh VCAN (11748164_a_at) / RFU JSRP1 (11732532_at) / Fold change /veh JSRP1 (11732532_at) / RFU KRTAP10-11 (11738290_x_at) / Fold change /veh KRTAP10-11 (11738290_x_at) / RFU MYO3A (11730013_a_at) / Fold change /veh MYO3A (11730013_a_at) / RFU EBF3 (11725865_a_at) / Fold change /veh EBF3 (11725865_a_at) / RFU CAMK2N1 (11719241_x_at) / Fold change /veh CAMK2N1 (11719241_x_at) / RFU C5orf56 (11738088_a_at) / Fold change /veh C5orf56 (11738088_a_at) / RFU OLFML3 (11715873_a_at) / Fold change /veh OLFML3 (11715873_a_at) / RFU LOC100653217 /// NTM (11731650_a_at) / Fold change /veh LOC100653217 /// NTM (11731650_a_at) / RFU MAPK11 (11762145_a_at) / Fold change /veh MAPK11 (11762145_a_at) / RFU FIZ1 (11724087_x_at) / Fold change /veh FIZ1 (11724087_x_at) / RFU OASL (11726364_x_at) / Fold change /veh OASL (11726364_x_at) / RFU SOX15 (11748057_x_at) / Fold change /veh SOX15 (11748057_x_at) / RFU CD79A (11719716_a_at) / Fold change /veh CD79A (11719716_a_at) / RFU HIST1H1D (11736915_at) / Fold change /veh HIST1H1D (11736915_at) / RFU CASKIN2 (11723855_a_at) / Fold change /veh CASKIN2 (11723855_a_at) / RFU LOC730098 (11760151_x_at) / Fold change /veh LOC730098 (11760151_x_at) / RFU OR4N2 (11742367_at) / Fold change /veh OR4N2 (11742367_at) / RFU PRRT2 (11749266_a_at) / Fold change /veh PRRT2 (11749266_a_at) / RFU SNX32 (11753110_a_at) / Fold change /veh SNX32 (11753110_a_at) / RFU CDHR5 (11726645_a_at) / Fold change /veh CDHR5 (11726645_a_at) / RFU RCAN1 (11760418_a_at) / Fold change /veh RCAN1 (11760418_a_at) / RFU FAM167A (11723789_a_at) / Fold change /veh FAM167A (11723789_a_at) / RFU FAM26E (11764081_at) / Fold change /veh FAM26E (11764081_at) / RFU ISYNA1 (11749810_s_at) / Fold change /veh ISYNA1 (11749810_s_at) / RFU ACY1 (11761880_at) / Fold change /veh ACY1 (11761880_at) / RFU 11764098_at / Fold change /veh 11764098_at / RFU SAMD14 (11745864_x_at) / Fold change /veh SAMD14 (11745864_x_at) / RFU NPB (11741838_a_at) / Fold change /veh NPB (11741838_a_at) / RFU TMPRSS6 (11731388_a_at) / Fold change /veh TMPRSS6 (11731388_a_at) / RFU KRTAP10-2 (11738614_at) / Fold change /veh KRTAP10-2 (11738614_at) / RFU ARHGAP8 /// PRR5-ARHGAP8 (11727945_x_at) / Fold change /veh ARHGAP8 /// PRR5-ARHGAP8 (11727945_x_at) / RFU KRTAP5-7 /// NADSYN1 (11734609_at) / Fold change /veh KRTAP5-7 /// NADSYN1 (11734609_at) / RFU RASL12 (11751679_a_at) / Fold change /veh RASL12 (11751679_a_at) / RFU CDKN2B (11736163_a_at) / Fold change /veh CDKN2B (11736163_a_at) / RFU PRF1 (11729649_at) / Fold change /veh PRF1 (11729649_at) / RFU, ZNF638 /// ZNF638-IT1 / Fold change vs veh, ZNF638 /// ZNF638-IT1 / RFU, PANK3 / Fold change vs veh, PANK3 / RFU, SH3YL1 / Fold change vs veh, SH3YL1 / RFU, ZEB2 / Fold change vs veh, ZEB2 / RFU, NRIP1 / Fold change vs veh, NRIP1 / RFU, PTTG1IP / Fold change vs veh, PTTG1IP / RFU, CAPN2 / Fold change vs veh, CAPN2 / RFU, MED14 / Fold change vs veh, MED14 / RFU, SNORA58 / Fold change vs veh, SNORA58 / RFU, C1orf63 / Fold change vs veh, C1orf63 / RFU, LRRFIP1 / Fold change vs veh, LRRFIP1 / RFU, NDUFAF7 / Fold change vs veh, NDUFAF7 / RFU, SLC12A2 / Fold change vs veh, SLC12A2 / RFU, IBTK / Fold change vs veh, IBTK / RFU, ESF1 / Fold change vs veh, ESF1 / Fold change vs veh, TMEM50B / RFU, TAOK1 / Fold change vs veh, TAOK1 / RFU, ACBD3 / Fold change vs veh, ACBD3 / RFU, TMA16 / Fold change vs veh, TMA16 / RFU, RWDD3 / Fold change vs veh, RWDD3 / RFU, BCAT1 / Fold change vs veh, BCAT1 / RFU, EDEM3 / Fold change vs veh, EDEM3 / RFU, TMEM33 / Fold change vs veh, TMEM33 / RFU, WDR75 / Fold change vs veh, WDR75 / RFU, AHCTF1 / Fold change vs veh, AHCTF1 / RFU, TFRC / Fold change vs veh, TFRC / RFU, ZDHHC17 / Fold change vs veh, ZDHHC17 / RFU, NOM1 / Fold change vs veh, NOM1 / RFU, ARL8B / Fold change vs veh, ARL8B / RFU, ZBTB11 / Fold change vs veh, ZBTB11 / RFU, TAMM41 / Fold change vs veh, TAMM41 / RFU, KIAA1704 /// LOC100996395 / Fold change vs veh, KIAA1704 /// LOC100996395 / RFU, ING1 / Fold change vs veh, ING1 / RFU, TRMT61B / Fold change vs veh, TRMT61B / RFU, FUBP3 / Fold change vs veh, FUBP3 / RFU, TP53 / Fold change vs veh, TP53 / RFU, TNKS2 / Fold change vs veh, TNKS2 / RFU, ZFP14 / Fold change vs veh, ZFP14 / RFU, ACTR2 / Fold change vs veh, ACTR2 / RFU, PPP3R1 / Fold change vs veh, PPP3R1 / RFU, PIK3R1 / Fold change vs veh, PIK3R1 / RFU, HNRNPA1 / Fold change vs veh, HNRNPA1 / RFU, RNF170 / Fold change vs veh, RNF170 / RFU, ZNF28 / Fold change vs veh, ZNF28 / RFU, RNGTT / Fold change vs veh, RNGTT / RFU, OGT / Fold change vs veh, OGT / RFU, BRD1 / Fold change vs veh, BRD1 / RFU, MARS / Fold change vs veh, MARS / RFU, ZNF655 / Fold change vs veh, ZNF655 / RFU, FAHD1 / Fold change vs veh, FAHD1 / RFU, BDP1 / Fold change vs veh, BDP1 / RFU, LRRCC1 / Fold change vs veh, LRRCC1 / RFU, ARID1A / Fold change vs veh, ARID1A / RFU, ZNF146 / Fold change vs veh, ZNF146 / RFU, ZNF330 / Fold change vs veh, ZNF330 / RFU, GPN3 / Fold change vs veh, GPN3 / RFU, C9orf123 / Fold change vs veh, C9orf123 / RFU, N4BP2L2 / Fold change vs veh, N4BP2L2 / RFU, ARFIP1 / Fold change vs veh, ARFIP1 / RFU, FAM179B / Fold change vs veh, FAM179B / RFU, BCL10 / Fold change vs veh, BCL10 / RFU, UHRF1BP1L / Fold change vs veh, UHRF1BP1L / RFU, BET1 / Fold change vs veh, BET1 / RFU, CNOT2 / Fold change vs veh, CNOT2 / RFU, ZNF268 / Fold change vs veh, ZNF268 / Fold change vs veh, ZNF507 / RFU, DGCR2 / Fold change vs veh, DGCR2 / RFU, WDSUB1 / Fold change vs veh, WDSUB1 / Fold change vs veh, HSP90B1 /// MIR3652 / RFU, ADSS / Fold change vs veh, ADSS / RFU, GK / Fold change vs veh, GK / RFU, ZNF148 / Fold change vs veh, ZNF148 / RFU, TAF9 / Fold change vs veh, TAF9 / RFU, SLC1A5 / Fold change vs veh, SLC1A5 / RFU, SLMO2 / Fold change vs veh, SLMO2 / RFU, ABCC4 / Fold change vs veh, ABCC4 / RFU, LOC101060439 /// RAP1B / Fold change vs veh, LOC101060439 /// RAP1B / RFU, RFX7 / Fold change vs veh, RFX7 / RFU, GTPBP10 / Fold change vs veh, GTPBP10 / RFU, CNEP1R1 / Fold change vs veh, CNEP1R1 / RFU, BIVM-ERCC5 /// ERCC5 / Fold change vs veh, BIVM-ERCC5 /// ERCC5 / RFU, ILF3 / Fold change vs veh, ILF3 / RFU 11762660_at / Fold change /veh 11762660_at / RFU VCAN (11757783_s_at) / Fold change /veh VCAN (11757783_s_at) / RFU DDX43 (11728927_at) / Fold change /veh DDX43 (11728927_at) / RFU KRT8 (11758188_x_at) / Fold change /veh KRT8 (11758188_x_at) / RFU NKD1 (11759106_at) / Fold change /veh NKD1 (11759106_at) / RFU SRD5A1 (11742802_a_at) / Fold change /veh SRD5A1 (11742802_a_at) / RFU TPSAB1 /// TPSB2 (11721975_s_at) / Fold change /veh TPSAB1 /// TPSB2 (11721975_s_at) / RFU GSTM3 (11746129_a_at) / Fold change /veh GSTM3 (11746129_a_at) / RFU IL23R (11737362_x_at) / Fold change /veh IL23R (11737362_x_at) / RFU TMEM51 (11727254_a_at) / Fold change /veh TMEM51 (11727254_a_at) / RFU PIWIL2 (11732686_x_at) / Fold change /veh PIWIL2 (11732686_x_at) / RFU ORM1 (11744905_x_at) / Fold change /veh ORM1 (11744905_x_at) / RFU CCDC152 (11743942_at) / Fold change /veh CCDC152 (11743942_at) / RFU ECM1 (11717891_a_at) / Fold change /veh ECM1 (11717891_a_at) / RFU IL23R (11748794_a_at) / Fold change /veh IL23R (11748794_a_at) / RFU TNFAIP8L3 (11732012_x_at) / Fold change /veh TNFAIP8L3 (11732012_x_at) / RFU MBOAT4 (11741988_at) / Fold change /veh MBOAT4 (11741988_at) / RFU 11764193_at / Fold change /veh 11764193_at / RFU TMEM53 (11763286_at) / Fold change /veh TMEM53 (11763286_at) / RFU MAGEB2 (11727129_at) / Fold change /veh MAGEB2 (11727129_at) / RFU TMEM200A (11744735_a_at) / Fold change /veh TMEM200A (11744735_a_at) / RFU CCDC152 (11751479_a_at) / Fold change /veh CCDC152 (11751479_a_at) / RFU FAM211A (11726209_a_at) / Fold change /veh FAM211A (11726209_a_at) / RFU RGS16 (11746705_a_at) / Fold change /veh RGS16 (11746705_a_at) / RFU VCAN (11755009_s_at) / Fold change /veh VCAN (11755009_s_at) / RFU RHOB (11743442_s_at) / Fold change /veh RHOB (11743442_s_at) / RFU RGS16 (11720943_a_at) / Fold change /veh RGS16 (11720943_a_at) / RFU RGS16 (11720944_at) / Fold change /veh RGS16 (11720944_at) / RFU, VPS4B / Fold change vs veh, VPS4B / RFU, CREB1 / Fold change vs veh, CREB1 / RFU, DNAJC13 / Fold change vs veh, DNAJC13 / RFU, GNAQ / Fold change vs veh, GNAQ / RFU, CDK5R1 / Fold change vs veh, CDK5R1 / RFU, ZRANB3 / Fold change vs veh, ZRANB3 / RFU, CUL4A / Fold change vs veh, CUL4A / RFU, CCNY / Fold change vs veh, CCNY / RFU, UFL1 / Fold change vs veh, UFL1 / RFU, COG3 / Fold change vs veh, COG3 / RFU, DIAPH2 / Fold change vs veh, DIAPH2 / RFU, SKA2 / Fold change vs veh, SKA2 / RFU, AFF3 / Fold change vs veh, AFF3 / RFU, LMF1 / Fold change vs veh, LMF1 / RFU, IPO11 / Fold change vs veh, IPO11 / RFU, DFFB / Fold change vs veh, DFFB / RFU, FOXP1 / Fold change vs veh, FOXP1 / RFU, CARD8 / Fold change vs veh, CARD8 / RFU, STRN3 / Fold change vs veh, STRN3 / RFU, ADK / Fold change vs veh, ADK / RFU, RASSF2 / Fold change vs veh, RASSF2 / RFU, WIPF1 / Fold change vs veh, WIPF1 / RFU, LARP1B / Fold change vs veh, LARP1B / RFU, RASA1 / Fold change vs veh, RASA1 / RFU, RB1 / Fold change vs veh, RB1 / RFU, PPFIA1 / Fold change vs veh, PPFIA1 / RFU, MAT2A / Fold change vs veh, MAT2A / RFU, CCT5 / Fold change vs veh, CCT5 / RFU, WDR92 / Fold change vs veh, WDR92 / RFU, CUX1 / Fold change vs veh, CUX1 / RFU, TTC7A / Fold change vs veh, TTC7A / RFU, TMEM135 / Fold change vs veh, TMEM135 / RFU, DEPTOR / Fold change vs veh, DEPTOR / RFU, CPM / Fold change vs veh, CPM / RFU, DNAJB6 / Fold change vs veh, DNAJB6 / RFU, CACNA2D3 / Fold change vs veh, CACNA2D3 / RFU, DTX4 / Fold change vs veh, DTX4 / RFU, TFCP2 / Fold change vs veh, TFCP2 / RFU, GMCL1 /// GMCL1P1 / Fold change vs veh, GMCL1 /// GMCL1P1 / RFU, AEBP2 / Fold change vs veh, AEBP2 / RFU, SNHG1 /// SNORD22 /// SNORD25 /// SNORD26 /// SNORD27 /// SNORD28 /// SNORD29 /// SNORD31 / Fold change vs veh, SNHG1 /// SNORD22 /// SNORD25 /// SNORD26 /// SNORD27 /// SNORD28 /// SNORD29 /// SNORD31 / Fold change (Aza/veh), C12orf56 (ProbeSet 11735607_a_at) / Fold change (ACY-1035/veh), C12orf56 (ProbeSet 11735607_a_at) / Fold change (Aza/veh), FGFR1OP (ProbeSet 11751329_s_at) / Fold change (ACY-1035/veh), FGFR1OP (ProbeSet 11751329_s_at) / Fold change (Aza/veh), VPS36 (ProbeSet 11739960_a_at) / Fold change (ACY-1035/veh), VPS36 (ProbeSet 11739960_a_at) / RFU SYPL1 (11715823_x_at) / Fold change /veh SYPL1 (11715823_x_at) / RFU IGFBP7 (11715501_s_at) / Fold change /veh IGFBP7 (11715501_s_at) / RFU REEP3 (11722064_at) / Fold change /veh REEP3 (11722064_at) / RFU IGLL1 (11728026_x_at) / Fold change /veh IGLL1 (11728026_x_at): dose or concentration left out as unconfirmed
Conditions: gene C12orf56; ACY-1035 vs DMSO; LIST F

## Nc1ccc(-c2cccs2)cc1NC(=O)c1ccc2c(c1)cc(C1CC1)n2CCN1CCOCC1 [ACY-1035]
  Fold change (ACY-1035/veh), C12orf56 (ProbeSet 11735607_a_at): 0.39
